Source: the supplement of paper PMC10307832

Key:
Assay in all cases: relative viability (nuclei count vs DMSO), 5 days (fraction); higher = more cells survive
EHT 1864 + AZD7762 = compound: C1COCCN1CC2=CC(=O)C(=CO2)OCCCCCSC3=C4C=CC(=CC4=NC=C3)C(F)(F)F [EHT 1864] + NC(=O)Nc1cc(-c2cccc(F)c2)sc1C(=O)N[C@H]1CCCNC1 [AZD7762] (partner 0.2 µM)
Outline: (§1)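 Lung cancer cell lines were seeded in 1536-well plates and dosed by pin tool the next day, with either a single drug or a fixed anchor-drug dose combined with five library-drug doses (not always all listed) spaced in √10 steps. Five days later, one step fixed the cells and stained their nuclei (final 0.05% Triton X-100, 1% formaldehyde, 1 ug/ml Hoechst), and nuclei were counted on 4× images. Relative viability is the nuclei count in treated wells divided by the count in vehicle wells, and each value is the median of duplicate plates.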

EHT 1864 + Vorinostat = compound: C1COCCN1CC2=CC(=O)C(=CO2)OCCCCCSC3=C4C=CC(=CC4=NC=C3)C(F)(F)F [EHT 1864] + O=C(CCCCCCC(=O)Nc1ccccc1)NO [Vorinostat] (partner 1 µM)
Outline: as §1

EHT 1864 + Foretinib = compound: C1COCCN1CC2=CC(=O)C(=CO2)OCCCCCSC3=C4C=CC(=CC4=NC=C3)C(F)(F)F [EHT 1864] + COc1cc2c(Oc3ccc(NC(=O)C4(C(=O)Nc5ccc(F)cc5)CC4)cc3F)ccnc2cc1OCCCN1CCOCC1 [Foretinib] (partner 0.25 µM)
Outline: as §1

EHT 1864 + Pictilisib = compound: C1COCCN1CC2=CC(=O)C(=CO2)OCCCCCSC3=C4C=CC(=CC4=NC=C3)C(F)(F)F [EHT 1864] + CS(=O)(=O)N1CCN(Cc2cc3nc(-c4cccc5[nH]ncc45)nc(N4CCOCC4)c3s2)CC1 [Pictilisib] (partner 1 µM)
Outline: as §1

Cell Line	relative viability (EHT 1864 + AZD7762; first compound 0.04 µM)	relative viability (EHT 1864 + AZD7762; first compound 0.4 µM)	relative viability (EHT 1864 + AZD7762; first compound 1.265 µM)	relative viability (EHT 1864 + AZD7762; first compound 4 µM)	relative viability (EHT 1864 + Vorinostat; first compound 0.04 µM)	relative viability (EHT 1864 + Vorinostat; first compound 0.4 µM)	relative viability (EHT 1864 + Vorinostat; first compound 1.265 µM)	relative viability (EHT 1864 + Vorinostat; first compound 4 µM)	relative viability (EHT 1864 + Foretinib; first compound 0.04 µM)	relative viability (EHT 1864 + Foretinib; first compound 0.4 µM)	relative viability (EHT 1864 + Foretinib; first compound 1.265 µM)	relative viability (EHT 1864 + Foretinib; first compound 4 µM)	relative viability (EHT 1864 + Pictilisib; first compound 0.04 µM)	relative viability (EHT 1864 + Pictilisib; first compound 0.1265 µM)	relative viability (EHT 1864 + Pictilisib; first compound 0.4 µM)	relative viability (EHT 1864 + Pictilisib; first compound 1.265 µM)	relative viability (EHT 1864 + Pictilisib; first compound 4 µM)	relative viability (EHT 1864 + AZD7762; first compound 0.1265 µM)	relative viability (EHT 1864 + Vorinostat; first compound 0.1265 µM)	relative viability (EHT 1864 + Foretinib; first compound 0.1265 µM)
NCI-H2087	1.25	1.2	1.25	1.23	0.436	0.798	0.727	0.572	1.01	1	1.01	0.845	0.942	0.698	0.952	0.72	0.97	–	–	–
LU99A	0.445	0.359	0.308	0.403	0.58	0.426	0.579	0.324	0.818	0.835	0.805	0.749	0.389	0.276	0.326	0.289	0.336	0.203	0.347	0.796
NCI-H1355	0.876	0.725	0.688	0.68	0.659	0.633	0.619	0.696	0.972	0.921	0.95	0.966	0.423	0.385	0.412	0.445	0.475	0.65	0.548	0.815
NCI-H520	–	–	–	–	0.734	0.696	0.758	0.715	0.56	0.736	0.697	0.744	0.346	0.27	0.308	0.324	0.336	–	0.628	0.734
NCI-H661	–	–	–	–	0.836	0.773	0.697	0.712	1.03	0.993	0.986	0.817	0.403	0.435	0.481	0.437	0.415	–	0.685	0.956
NCI-H650	0.994	1.13	1.1	1.06	0.497	0.413	0.457	0.478	0.99	0.97	1.03	0.99	0.915	–	0.941	0.895	0.847	0.612	0.308	0.859
NCI-H647	0.621	0.661	0.44	0.461	0.612	0.512	0.762	0.485	1.19	1.37	1.27	1.26	0.56	–	0.468	0.325	0.433	0.296	0.455	0.977
201T	0.578	0.61	0.594	0.652	0.901	1.01	0.923	0.811	0.964	1.16	0.99	1.08	0.703	0.676	0.7	0.647	0.607	0.575	0.876	1.05
SW 1573	–	–	–	–	0.922	0.674	1.07	0.671	0.805	0.816	0.746	0.896	0.525	0.364	0.462	0.521	0.511	–	–	0.722
COR-L23	–	–	–	–	0.476	0.476	0.435	0.433	1.01	1	0.948	0.86	0.716	0.523	0.78	0.692	0.822	–	0.333	0.922
SK-LU-1	–	–	–	–	0.81	0.725	0.707	0.679	0.843	0.779	0.775	0.746	0.619	0.519	0.619	0.542	0.583	–	0.726	0.772
NCI-H1650	–	–	–	–	0.529	0.592	0.623	0.521	–	1.18	0.896	0.92	0.597	0.351	0.579	0.548	0.442	–	0.54	–
UMC-11	–	–	–	–	0.372	0.41	0.398	0.534	0.935	–	1.07	1.11	0.829	0.591	0.903	0.63	0.883	–	0.482	0.962
NCI-H2009	–	–	–	–	0.69	0.72	0.627	0.612	1.17	1.22	1.2	1.07	0.798	0.664	0.852	0.718	0.761	–	0.698	1.12
NCI-H2023	–	–	–	–	0.692	0.591	0.699	0.784	0.787	0.957	0.876	0.778	0.244	0.208	0.223	0.212	0.271	–	0.381	0.855
COR-L 105	–	–	–	–	0.99	0.949	0.847	0.778	0.959	1.25	1.19	0.917	0.424	0.461	0.462	0.414	0.378	–	0.699	1.02
SK-MES-1	–	–	–	–	1.1	1.1	1.1	1.03	0.951	1.06	1.11	0.799	0.398	0.361	0.34	0.337	0.315	–	0.983	0.866
NCI-H1563	–	–	–	–	–	–	–	–	0.962	0.978	0.857	0.908	0.62	0.637	0.638	0.656	0.669	–	–	0.896
EBC-1	–	–	–	–	–	–	–	–	0.0988	0.116	0.115	0.0993	0.425	0.342	0.385	0.41	0.426	–	–	0.119
Calu-6	–	–	–	–	–	–	–	–	0.932	0.846	0.913	0.87	0.899	0.866	0.862	0.902	0.83	–	–	0.853
HCC-44	1.01	0.934	1.03	1.01	1.08	1.06	1.08	1.13	–	–	–	–	0.412	0.37	0.604	0.573	0.694	0.896	0.984	–
